CC1(C)CO[P+]([O-])(Oc2c(Br)cc(Br)cc2Br)OC1
solubility (mole fraction)
Settings	in THF	in acetone	in acetonitrile	in chloroform	in dichloromethane	in ethanol	in ethyl acetate	in methanol	in methyl acetate	in toluene
288.15 K	–	–	–	0.0801	0.0492	–	–	–	0.0053	–
293.15 K	0.024	0.0131	0.00399	0.0844	0.0546	0.0025	0.00497	0.00195	0.00649	0.00784
298.15 K	0.0258	0.0153	0.00504	0.0882	0.0594	0.00298	0.00564	0.0024	0.00765	0.009
303.15 K	0.0303	0.0171	–	0.0947	0.0653	0.00358	–	0.00296	0.00867	0.0103
308.15 K	0.0329	0.0194	0.00755	0.1	0.0712	0.00414	0.00748	0.00354	0.0107	–
313.15 K	0.0374	0.0226	0.00936	0.106	–	0.00465	0.00853	0.00424	0.0119	0.0145
318.15 K	0.0409	0.0254	–	0.113	–	0.00556	0.00951	–	0.0138	–
323.15 K	0.0448	0.0295	0.0128	–	–	0.00643	0.0111	0.00614	0.0163	0.0195
328.15 K	–	–	–	0.124	–	–	0.0127	–	–	–
333.15 K	–	–	0.0184	–	–	0.00795	0.0143	0.0081	–	0.0268
343.15 K	–	–	0.0265	–	–	–	–	–	–	0.0349
